Patent US6809181B2, “Human beta-defensin-3 (HBD-3), a highly cationic beta-defensin antimicrobial peptide” (University of Iowa Research Foundation, priority 2000, dated 2004)
≈ marks a conversion by molar mass, not a printed value.

How the values were obtained:
[1] = tested on: Mycoplasma hominis; conditions: n=28, r140, cited from earlier work
[2] = tested on: Mycoplasma pneumoniae; conditions: n=11, r141, cited from earlier work
[3] = tested on: Staphylococcus aureus; conditions: n=100, r142, cited from earlier work
[4] = tested on: Ureaplasma urealyticum; conditions: n=19, r143, cited from earlier work
[5] = tested on: HBD-3 mRNA expression in fetal lung explants; test: RT-PCR of HBD-3 mRNA in fetal lung explants; format: cell-based, human; conditions: 100 ng/ml IL-1β for 24 h
[6] = tested on: HBD-3 mRNA expression in cultured gingival keratinocytes; test: RT-PCR of HBD-3 mRNA in cultured gingival keratinocytes; format: cell-based, human; conditions: 100 ng/ml IL-1β for 24 h

Row | Molecule | Range [1] | MIC50 ([1]; unit assumed) [µg/mL] | MIC90 ([1]; unit assumed) [µg/mL] | Range [2] | MIC50 ([2]; unit assumed) [µg/mL] | MIC90 ([2]; unit assumed) [µg/mL] | Range [3] | MIC50 ([3]; unit assumed) [µg/mL] | MIC90 ([3]; unit assumed) [µg/mL] | Range [4] | MIC50 ([4]; unit assumed) [µg/mL] | MIC90 ([4]; unit assumed) [µg/mL] | HBD-3 mRNA expression [5] | HBD-3 mRNA expression [6]
1 | CCC[C@@H]1C[C@@H](C(=O)N[C@@H]([C@H]2O[C@H](SC)[C@H](O)[C@@H](O)[C@H]2O)[C@@H](C)O)N(C)C1 [LINCOMYCIN, lincomycin] | 0.5-16 | 2 (≈ 4.92 µM) | 4 (≈ 9.84 µM) | 2-32 | 8 (≈ 19.7 µM) | 32 (≈ 78.7 µM) | 0.5-512 | 1 (≈ 2.46 µM) | 1 (≈ 2.46 µM) | 64-128 | 128 (≈ 315 µM) | 128 (≈ 315 µM) |  | 
2 | IL-1β: IL-1β (R & D Systems), pro-inflammatory stimulus used at 100 ng/ml to induce HBD-3 mRNA expression |  |  |  |  |  |  |  |  |  |  |  |  | increased markedly | increased markedly
